Data from PubChem BioAssay (NCI).
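Method: 48-hour compound exposure of cells in 96-well plates, five concentrations, linear interpolation of endpoints. Abbreviation: GI50, concentration required for 50% inhibition of growth. TGI marks complete inhibition of growth.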

Tests used:
Assay in all cases: growth of human tumour cells (NCI), 48 h
786-0 renal = test system: 786-0 renal
A498 renal = test system: A498 renal
A549 NSCLC = test system: A549 NSCLC
ACHN renal = test system: ACHN renal
BT-549 breast = test system: BT-549 breast
CAKI-1 renal = test system: CAKI-1 renal
CCRF-CEM leukemia = test system: CCRF-CEM leukemia
COLO 205 colon = test system: COLO 205 colon
DU-145 prostate = test system: DU-145 prostate
EKVX NSCLC = test system: EKVX NSCLC
HCC-2998 colon = test system: HCC-2998 colon
HCT-116 colon = test system: HCT-116 colon
HCT-15 colon = test system: HCT-15 colon
HL-60(TB) leukemia = test system: HL-60(TB) leukemia
HOP-62 NSCLC = test system: HOP-62 NSCLC
HOP-92 NSCLC = test system: HOP-92 NSCLC
HS 578T breast = test system: HS 578T breast
HT29 colon = test system: HT29 colon
IGROV1 ovarian = test system: IGROV1 ovarian
K-562 leukemia = test system: K-562 leukemia
KM12 colon = test system: KM12 colon
LOX IMVI melanoma = test system: LOX IMVI melanoma
M14 melanoma = test system: M14 melanoma
MALME-3M melanoma = test system: MALME-3M melanoma
MCF7 breast = test system: MCF7 breast
MDA-MB-231 breast = test system: MDA-MB-231 breast
MDA-MB-435 = test system: MDA-MB-435
MDA-MB-468 breast = test system: MDA-MB-468 breast
MOLT-4 leukemia = test system: MOLT-4 leukemia
NCI-H226 lung = test system: NCI-H226 lung
NCI-H23 lung = test system: NCI-H23 lung
NCI-H460 lung = test system: NCI-H460 lung
NCI-H522 lung = test system: NCI-H522 lung
NCI/ADR-RES ovarian = test system: NCI/ADR-RES ovarian
OVCAR-3 ovarian = test system: OVCAR-3 ovarian
OVCAR-4 ovarian = test system: OVCAR-4 ovarian
OVCAR-5 ovarian = test system: OVCAR-5 ovarian
OVCAR-8 ovarian = test system: OVCAR-8 ovarian
PC-3 prostate = test system: PC-3 prostate
RPMI-8226 leukemia = test system: RPMI-8226 leukemia
RXF 393 renal = test system: RXF 393 renal
SF-268 CNS = test system: SF-268 CNS
SF-295 CNS = test system: SF-295 CNS
SF-539 CNS = test system: SF-539 CNS
SK-MEL-2 melanoma = test system: SK-MEL-2 melanoma
SK-MEL-28 melanoma = test system: SK-MEL-28 melanoma
SK-MEL-5 melanoma = test system: SK-MEL-5 melanoma
SK-OV-3 ovarian = test system: SK-OV-3 ovarian
SN12C renal = test system: SN12C renal
SNB-19 CNS = test system: SNB-19 CNS
SNB-75 CNS = test system: SNB-75 CNS
SR leukemia = test system: SR leukemia
SW-620 colon = test system: SW-620 colon
T-47D breast = test system: T-47D breast
TK-10 renal = test system: TK-10 renal
U251 CNS = test system: U251 CNS
UACC-257 melanoma = test system: UACC-257 melanoma
UACC-62 melanoma = test system: UACC-62 melanoma
UO-31 renal = test system: UO-31 renal

Nc1nnc(-c2c[nH]c3ncc(Br)cc23)c(-c2c[nH]c3ccc(Br)cc23)n1
GI50 (786-0 renal): 8.24 µM
TGI (786-0 renal): 23.2 µM
GI50 (A498 renal): 13.7 µM
TGI (A498 renal): 29 µM
GI50 (A549 NSCLC): 10.9 µM
TGI (A549 NSCLC): 44.5 µM
GI50 (ACHN renal): 6.04 µM
TGI (ACHN renal): 19.6 µM
GI50 (BT-549 breast): 2.71 µM
TGI (BT-549 breast): 12 µM
GI50 (CAKI-1 renal): 4.02 µM
TGI (CAKI-1 renal): 17.9 µM
GI50 (CCRF-CEM leukemia): 2.33 µM
TGI (CCRF-CEM leukemia): > 100 µM
GI50 (COLO 205 colon): 3.35 µM
TGI (COLO 205 colon): 14.9 µM
GI50 (DU-145 prostate): 7.24 µM
TGI (DU-145 prostate): 21.1 µM
GI50 (EKVX NSCLC): 10.2 µM
TGI (EKVX NSCLC): 26.3 µM
GI50 (HCC-2998 colon): 14 µM
TGI (HCC-2998 colon): 28.9 µM
GI50 (HCT-116 colon): 3.82 µM
TGI (HCT-116 colon): 18.9 µM
GI50 (HCT-15 colon): 4.41 µM
TGI (HCT-15 colon): 19.1 µM
GI50 (HL-60(TB) leukemia): 1.99 µM
TGI (HL-60(TB) leukemia): 16.3 µM
GI50 (HOP-62 NSCLC): 5.26 µM
TGI (HOP-62 NSCLC): 20.2 µM
GI50 (HOP-92 NSCLC): 4.06 µM
TGI (HOP-92 NSCLC): 24.3 µM
GI50 (HS 578T breast): 4.47 µM
TGI (HS 578T breast): 28.8 µM
GI50 (HT29 colon): 5.74 µM
TGI (HT29 colon): 26 µM
GI50 (IGROV1 ovarian): 6.29 µM
TGI (IGROV1 ovarian): 24.4 µM
GI50 (K-562 leukemia): 0.497 µM
TGI (K-562 leukemia): 16.8 µM
GI50 (KM12 colon): 6.18 µM
TGI (KM12 colon): 23.6 µM
GI50 (LOX IMVI melanoma): 5.39 µM
TGI (LOX IMVI melanoma): 23.3 µM
GI50 (M14 melanoma): 4.67 µM
TGI (M14 melanoma): 22.2 µM
GI50 (MALME-3M melanoma): 4.61 µM
TGI (MALME-3M melanoma): 25.8 µM
GI50 (MCF7 breast): 0.92 µM
TGI (MCF7 breast): 18.5 µM
GI50 (MDA-MB-231 breast): 13.1 µM
TGI (MDA-MB-231 breast): 32.5 µM
GI50 (MDA-MB-435): 0.379 µM
TGI (MDA-MB-435): 16.1 µM
GI50 (MDA-MB-468 breast): 1.57 µM
TGI (MDA-MB-468 breast): 8.83 µM
GI50 (MOLT-4 leukemia): 1.89 µM
TGI (MOLT-4 leukemia): 12.7 µM
GI50 (NCI-H226 lung): 3.77 µM
TGI (NCI-H226 lung): 26.9 µM
GI50 (NCI-H23 lung): 11.3 µM
TGI (NCI-H23 lung): 26.2 µM
GI50 (NCI-H460 lung): 5.14 µM
TGI (NCI-H460 lung): 24.4 µM
GI50 (NCI-H522 lung): 0.403 µM
TGI (NCI-H522 lung): 15.3 µM
GI50 (NCI/ADR-RES ovarian): 13.4 µM
TGI (NCI/ADR-RES ovarian): 36.4 µM
GI50 (OVCAR-3 ovarian): 3 µM
TGI (OVCAR-3 ovarian): 12.7 µM
GI50 (OVCAR-4 ovarian): 5.78 µM
TGI (OVCAR-4 ovarian): 21.7 µM
GI50 (OVCAR-5 ovarian): 10.8 µM
TGI (OVCAR-5 ovarian): 27.3 µM
GI50 (OVCAR-8 ovarian): 10.4 µM
TGI (OVCAR-8 ovarian): 30.4 µM
GI50 (PC-3 prostate): 3.6 µM
TGI (PC-3 prostate): 22.4 µM
GI50 (RPMI-8226 leukemia): 4.68 µM
TGI (RPMI-8226 leukemia): 50.4 µM
GI50 (RXF 393 renal): 1.78 µM
TGI (RXF 393 renal): 7.03 µM
GI50 (SF-268 CNS): 8.72 µM
TGI (SF-268 CNS): 34 µM
GI50 (SF-295 CNS): 5.4 µM
TGI (SF-295 CNS): 20.8 µM
GI50 (SF-539 CNS): 3.48 µM
TGI (SF-539 CNS): 17.2 µM
GI50 (SK-MEL-2 melanoma): 6.31 µM
TGI (SK-MEL-2 melanoma): 23.1 µM
GI50 (SK-MEL-28 melanoma): 10.5 µM
TGI (SK-MEL-28 melanoma): 24.4 µM
GI50 (SK-MEL-5 melanoma): 3.06 µM
TGI (SK-MEL-5 melanoma): 13.9 µM
GI50 (SK-OV-3 ovarian): 10.6 µM
TGI (SK-OV-3 ovarian): 24.4 µM
GI50 (SN12C renal): 7.31 µM
TGI (SN12C renal): 23.6 µM
GI50 (SNB-19 CNS): 10.9 µM
TGI (SNB-19 CNS): 33.7 µM
GI50 (SNB-75 CNS): 1.56 µM
TGI (SNB-75 CNS): 8.26 µM
GI50 (SR leukemia): 0.378 µM
TGI (SR leukemia): 14.8 µM
GI50 (SW-620 colon): 5.32 µM
TGI (SW-620 colon): 27.2 µM
GI50 (T-47D breast): 4.16 µM
TGI (T-47D breast): 26.2 µM
GI50 (TK-10 renal): 15.1 µM
TGI (TK-10 renal): 33.5 µM
GI50 (U251 CNS): 10.1 µM
TGI (U251 CNS): 29.7 µM
GI50 (UACC-257 melanoma): 12.4 µM
TGI (UACC-257 melanoma): 29.7 µM
GI50 (UACC-62 melanoma): 3.79 µM
TGI (UACC-62 melanoma): 18.8 µM
GI50 (UO-31 renal): 4.58 µM
TGI (UO-31 renal): 20.7 µM
